Laboratory results as given in patent US10023570B2 (Array BioPharma, Inc., priority 2015, dated 2018).

These compounds were tested against human KDR protein in HEK-293 cells (Homo sapiens (Human), UniProt P35968) (assay: KDR Cell Assay (phospho-KDR in HEK-293 cells expressing inducible KDR)). Settings: pKDR Cell HEK 10% FBS IC50, HEK-293 cells expressing inducible KDR, VEGF stimulated.
Type: cell-based
Protocol: The cellular potency of a compound inhibiting KDR kinase was determined in HEK-293 cells expressing an inducible human KDR protein. […] The cells were incubated for 1 hour with test compound in DMEM at a final DMSO concentration of 0.25%. […] The media was aspirated and 35 μL of a 1× lysis buffer was added. […] The lysate was stored at −80° C. until ready for assay. Phospho-KDR was measured using a phospho-KDR kit (Catalog #K151BOC) purchased from Meso Scale Diagnostics (Rockville, Md.) according to the manufacturer's instructions. All values are expressed as percent of percent of control (POC). The POC values were fitted to a 4 parameter logistic curve fit and the IC50 value is point where the curve crosses 50 POC.

Sequence of human KDR protein in HEK-293 cells (P35968 20-1356): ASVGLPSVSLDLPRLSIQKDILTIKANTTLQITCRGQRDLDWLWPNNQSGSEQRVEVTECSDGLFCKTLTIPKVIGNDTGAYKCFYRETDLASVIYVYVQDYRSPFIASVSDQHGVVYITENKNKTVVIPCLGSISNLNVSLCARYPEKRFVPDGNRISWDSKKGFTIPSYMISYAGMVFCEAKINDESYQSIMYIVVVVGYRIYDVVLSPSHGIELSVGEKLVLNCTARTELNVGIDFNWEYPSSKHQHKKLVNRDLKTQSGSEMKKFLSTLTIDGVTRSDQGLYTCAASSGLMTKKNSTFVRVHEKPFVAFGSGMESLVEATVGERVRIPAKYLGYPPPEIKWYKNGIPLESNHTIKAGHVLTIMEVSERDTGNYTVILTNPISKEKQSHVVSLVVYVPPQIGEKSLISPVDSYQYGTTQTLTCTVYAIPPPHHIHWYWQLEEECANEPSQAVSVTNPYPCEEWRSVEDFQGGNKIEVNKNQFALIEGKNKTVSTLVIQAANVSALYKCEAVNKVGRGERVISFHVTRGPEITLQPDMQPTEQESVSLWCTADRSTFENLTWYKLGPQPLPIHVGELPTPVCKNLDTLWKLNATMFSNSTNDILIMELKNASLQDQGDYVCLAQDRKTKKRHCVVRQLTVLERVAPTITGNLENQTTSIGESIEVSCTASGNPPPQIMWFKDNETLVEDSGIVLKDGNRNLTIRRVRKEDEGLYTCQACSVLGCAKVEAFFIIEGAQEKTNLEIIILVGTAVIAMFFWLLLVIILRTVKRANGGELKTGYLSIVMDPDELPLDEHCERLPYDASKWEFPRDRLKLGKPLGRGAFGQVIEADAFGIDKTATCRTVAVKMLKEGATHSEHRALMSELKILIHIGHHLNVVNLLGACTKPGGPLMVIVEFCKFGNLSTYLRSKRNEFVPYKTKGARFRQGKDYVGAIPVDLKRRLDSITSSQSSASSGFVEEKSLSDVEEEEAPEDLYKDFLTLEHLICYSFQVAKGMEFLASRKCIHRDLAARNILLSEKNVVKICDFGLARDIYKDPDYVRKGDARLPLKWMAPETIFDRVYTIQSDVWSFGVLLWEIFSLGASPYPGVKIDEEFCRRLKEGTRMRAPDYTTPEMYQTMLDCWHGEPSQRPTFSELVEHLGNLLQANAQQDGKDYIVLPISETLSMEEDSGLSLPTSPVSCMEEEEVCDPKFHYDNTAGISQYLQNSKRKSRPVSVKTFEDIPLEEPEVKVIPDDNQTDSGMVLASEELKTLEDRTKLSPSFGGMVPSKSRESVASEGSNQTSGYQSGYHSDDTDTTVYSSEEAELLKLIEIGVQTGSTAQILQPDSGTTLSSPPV

IC50	SMILES
9.2 nM	Cn1cc(-c2cc(-c3ccc(N4CCC(Oc5ccc(Cl)cc5)CC4)nc3)c3c(C#N)cnn3c2)cn1 [Example 509, 4-(6-(4-(4-chlorophenoxy)piperidin-1-yl)pyridin-3-yl)-6-(1-methyl-1H-pyrazol-4-yl)pyrazolo[1,5-a]pyridine-3-carbonitrile]
≥ 5000 nM	Cn1cc(-c2cc(-c3ccc(N4CC5(CN(C(=O)OC(C)(C)C)C5)C4)nc3)c3c(C#N)cnn3c2)cn1 [Example 526, tert-butyl 6-(5-(3-cyano-6-(1-methyl-1H-pyrazol-4-yl)pyrazolo[1,5-a]pyridin-4-yl)pyridin-2-yl)-2,6-diazaspiro[3.3]heptane-2-carboxylate]
630 nM	Cn1cc(-c2cc(-c3ccc(N4CCN(Cc5ccc(F)cc5)CC4)nc3)c3c(C#N)cnn3c2)cn1 [Example 424, 4-(6-(4-(4-fluorobenzyl)piperazin-1-yl)pyridin-3-yl)-6-(1-methyl-1H-pyrazol-4-yl)pyrazolo[1,5-a]pyridine-3-carbonitrile]
536 nM	Cc1cc(CN2CCN(c3ccc(-c4cc(-c5cnn(C)c5)cn5ncc(C#N)c45)cn3)CC2)no1 [Example 436, 6-(1-methyl-1H-pyrazol-4-yl)-4-(6-(4-((5-methylisoxazol-3-yl)methyl)piperazin-1-yl)pyridin-3-yl)pyrazolo[1,5-a]pyridine-3-carbonitrile]
804 nM	Cn1cc(-c2cc(-c3ccc(N4CCN(Cc5ccc(F)cn5)CC4)nc3)c3c(C#N)cnn3c2)cn1 [Example 462, 4-(6-(4-((5-fluoropyridin-2-yl)methyl)piperazin-1-yl)pyridin-3-yl)-6-(1-methyl-1H-pyrazol-4-yl)pyrazolo[1,5-a]pyridine-3-carbonitrile]

Same assay, conditions: pKDR Cell HEK 10% FBS IC50, HEK-293 cells expressing inducible KDR, VEGF stimulated, 10% FBS

IC50	SMILES
195 nM	Cn1cc(-c2cc(-c3ccc(N4CCN(S(C)(=O)=O)CC4)nc3)c3c(C#N)cnn3c2)cn1 [Example 88, 6-(1-methyl-1H-pyrazol-4-yl)-4-(6-(4-(methylsulfonyl)piperazin-1-yl)pyridin-3-yl)pyrazolo[1,5-a]pyridine-3-carbonitrile]
531 nM	CC(C)O[C@H]1CCN(C(=O)N2CCN(c3ccc(-c4cc(-c5cnn(C)c5)cn5ncc(C#N)c45)cn3)CC2)C1 [Example 108, (S)-4-(6-(4-(3-isopropoxypyrrolidine-1-carbonyl)piperazin-1-yl)pyridin-3-yl)-6-(1-methyl-1H-pyrazol-4-yl)pyrazolo[1,5-a]pyridine-3-carbonitrile]
893 nM	CC(C)O[C@@H]1CCN(C(=O)N2CCN(c3ccc(-c4cc(-c5cnn(C)c5)cn5ncc(C#N)c45)cn3)CC2)C1 [Example 107, (R)-4-(6-(4-(3-isopropoxypyrrolidine-1-carbonyl)piperazin-1-yl)pyridin-3-yl)-6-(1-methyl-1H-pyrazol-4-yl)pyrazolo[1,5-a]pyridine-3-carbonitrile]
1080 nM	COCC(=O)N1CCN(c2ccc(-c3cc(-c4cnn(C)c4)cn4ncc(C#N)c34)cc2)CC1 [Example 292, 4-(4-(4-(2-methoxyacetyl)piperazin-1-yl)phenyl)-6-(1-methyl-1H-pyrazol-4-yl)pyrazolo[1,5-a]pyridine-3-carbonitrile]

SMILES	IC50
Cn1cc(C(=O)N2CCN(c3ccc(-c4cc(-c5cnn(C)c5)cn5ncc(C#N)c45)cn3)CC2)cn1 [Example 35, 6-(1-methyl-1H-pyrazol-4-yl)-4-(6-(4-(1-methyl-1H-pyrazole-4-carbonyl)piperazin-1-yl)pyridin-3-yl)pyrazolo[1,5-a]pyridine-3-carbonitrile 2,2,2-trifluoroacetate]	437 nM
Cn1cc(-c2cc(-c3ccc(N4CCN(C(=O)C5(c6cccc(Cl)c6)CC5)CC4)nc3)c3c(C#N)cnn3c2)cn1 [Example 356, 4-(6-(4-(1-(3-chlorophenyl)cyclopropane-1-carbonyl)piperazin-1-yl)pyridin-3-yl)-6-(1-methyl-1H-pyrazol-4-yl)pyrazolo[1,5-a]pyridine-3-carbonitrile 2,2,2-trifluoroacetate]	126 nM
